Assay results: patent publication US6489327B1, “Tryptase inhibitors” (Max-Planck-Gesellschaft zur Fordrungder Wisenschaften, e.V., priority 1998, dated 2002)
Structures can show the parent of a compound that is named as a salt.

Target: human tryptase
Test: Inhibition of human tryptase: apparent dissociation constant Kiapp, chromogenic substrate tos-Gly-Pro-Arg-pNA
Type: biochemical
Conditions: apparent dissociation constant in presence of substrate; human tryptase from lung tissue, 50 μg of heparin/ml
Description: The documented pathophysiological effects of mast cell tryptase are brought about directly by the enzymic activity of the protease. Accordingly, they are reduced or blocked by inhibitors which inhibit the enzymatic activity of the tryptase. The equilibrium dissociation constant Ki of the enzyme-inhibitor complex is a suitable measure of the affinity of a reversible inhibitor for the target protease. This Ki value can be determined by measuring the effect of the inhibitor on the tryptase-induced cleavage of a chromogenic peptide-p-nitroanilide substrate or a fluorogenic peptide-aminomethylcoumarin substrate.
The dissociation constants of the tryptase-inhibitor complexes are determined under equilibrium conditions in accordance with the general recommendations of Bieth (Bieth J G, Pathophysiological interpretation of kinetic constants of protease inhibitors, Bull. Europ. Physiopath. Resp. 16:183-195, 1980) and the methods of Sommerhoff et al. (Sommerhoff C P et al., A. Kazal-type inhibitor of human mast cell tryptase: Isolation from the medical leech Hirudo medicinalis, characterization, and sequence analysis, Biol. Chem. Hoppe-Seyler 375: 685-694, 1994).
Human tryptase is prepared in a pure state from lung tissue; the specific activity of the isolated protease, determined by means of titration, is normally 85% of the theoretical value. Constant quantities of tryptase are incubated with increasing quantities of the inhibitors in the presence of 50 μg of heparin/ml for stabilizing the protease. After the equilibrium has been established between the reaction partners, the remaining enzyme activity is determined after adding the peptide-p-nitroanilide substrate tos-Gly-Pro-Arg-pNA, the cleavage of which is monitored at 405 nm over a period of 3 min. Alternatively, the residual enzymic activity can also be determined using fluorogenic substrates. The apparent dissociation constants Kiapp (i.e. in the presence of substrate) are subsequently ascertained by nonlinear regression by fitting the enzyme rates to the general equation for reversible inhibitors (Morrison J F, Kinetics of the reversible inhibition of enzyme-catalysed reactions by tight-binding inhibitors, Biochim. Biophys. Acta 185, 269-286, 1969):
V1/V0=1−{Et+lt+Kiapp−[(Et+lt+Kiapp)^2−4Etlt]^½}/2Et
In this equation, V1 and V0 are the rates in the presence and absence of the inhibitor, respectively, and Et and lt are the concentrations of the tryptase and of the inhibitor.
The apparent dissociation constants which were determined for the compounds according to the invention are given in Table A below, in which the numbers of the compounds correspond to the numbers of the compounds in the examples.

Compound | Ki [nM]
NCC1CCC(C(=O)NC2CCN(C(=O)c3cccc(C(=O)N4CCC(NC(=O)C5CCC(CN)CC5)CC4)n3)CC2)CC1 (stereo not drawn) [Compound 15, Pyridine-2,6-dicarbobis[4-(4-aminomethylcyclohexylcarbonylamino)-1-piperidide]] | 3000
NCc1cccc(C(=O)N2CCN(C(=O)c3cccc(C(=O)N4CCN(C(=O)c5cccc(CN)c5)CC4)n3)CC2)c1 [Compound 1, Pyridine-2,6-dicarbobis[4-(3-aminomethylbenzoyl)-1-piperazide]] | 3000
CC(C)(c1ccc(OCC(=O)NCC(=O)NCCCCN)cc1)c1ccc(OCC(=O)NCC(=O)NCCCCN)cc1 [Compound 34, 2,2-Bis-[4-(10-amino-3,6-diaza-2,5-dioxodecyloxy)-phenyl]propane dihydrochloride] | 2000
NCC1CCC(C(=O)NC2CCN(C(=O)NC3CCC(CC4CCC(NC(=O)N5CCC(NC(=O)C6CCC(CN)CC6)CC5)CC4)CC3)CC2)CC1 (stereo not drawn) [Compound 23, Di{4-[4-(4-aminomethyl)cyclohexanoylamino]piperidin-1-ylcarbamoyl}cyclohexylmethane dihydrochloride] | 800
NCC1CCC(C(=O)N2CCN(C(=O)Nc3ccc(Oc4ccc(NC(=O)N5CCN(C(=O)C6CCC(CN)CC6)CC5)cc4)cc3)CC2)CC1 (stereo not drawn) [Compound 17, Bis{4-[4-(4-aminomethyl)cyclohexanoylpiperazin-1-yl]-carbonyl}-4,4′-diaminodiphenyl ether dihydrochloride] | 22000
CC(C)(c1ccc(OC(=O)N2CCN(C(=O)NCc3ccc(CN)cc3)CC2)cc1)c1ccc(OC(=O)N2CCN(C(=O)NCc3ccc(CN)cc3)CC2)cc1 [Compound 36, 2,2-Bis-{4-[4-(4-aminomethylbenzylcarbamoyl)-1-piperazinylcarbonyloxy]phenyl}propane dihydrochloride] | 28

Further compounds by falling Ki, results first:

Ki [nM] | Compound
200 | CC(C)(c1ccc(OCC(=O)NCc2ccc(NC(=N)N)cc2)cc1)c1ccc(OCC(=O)NCc2ccc(NC(=N)N)cc2)cc1 [Compound 31, 2,2-Bis-[4-(4-guanidinylbenzylamino)carbonylmethoxyphenyl]propane dihydroacetate]
100 | NCc1cccc(C(=O)N2CCN(C(=O)Nc3ccc(Oc4ccc(NC(=O)N5CCN(C(=O)c6cccc(CN)c6)CC5)cc4)cc3)CC2)c1 [Compound 21, Bis{4-[4-(3-aminomethyl)benzoylpiperazin-1-yl]-carbonyl}-4,4′-diaminodiphenyl ether dihydrochloride]
30 | NCc1cccc(C(=O)NC2CCN(C(=O)c3cccc(C(=O)N4CCC(NC(=O)c5cccc(CN)c5)CC4)n3)CC2)c1 [Compound 11, Pyridine-2,6-dicarbobis[4-(3-aminomethylbenzoylamino)-1-piperidide]]
